Several values for one entry are separate records, joined by “and”; a condition that tells them apart may be missing. Equal values may be shown once. Read-outs that look alike come from different tables or passages of the source.
Legend:
[1] = tested on: Puccinia triticina (syn. P. recondita); assay: Green house use example 9: curative control of brown rust on wheat (PUCCRT K4); format: in vivo
[2] = tested on: Pyricularia oryzae (PYRIOR); assay: microbe, parasite or virus in culture; format: cell-based; settings: for Observed efficacy: single active
[3] = tested on: Puccinia triticina (syn. P. recondita); assay: Green house use example 10: preventative control of brown rust on wheat (PUCCRT P10); format: in vivo
[4] = tested on: Septoria tritici (SEPTTR); assay: microbe, parasite or virus in culture; format: cell-based
[5] = tested on: Phakopsora pachyrhizi; settings: in vivo
[6] = tested on: Pyrenophora teres (PYRNTE), Qol resistant (F129L); assay: microbe, parasite or virus in culture; format: cell-based; settings: for inhibition of growth at 0.016 ppm / inhibition of growth at 0.063 ppm / inhibition of growth at 0.25 ppm / inhibition of growth at 1 ppm: Pyrenophora teres, 168 h, read-out: Observed efficacy
[7] = tested on: Phakopsora pachyrhizi; assay: Green house use example 14: protective control of soybean rust on soybeans (PHAKPA F129L P2); format: in vivo; settings: single compound
[8] = tested on: Alternaria solani (ALTESO); assay: microbe, parasite or virus in culture; format: cell-based; settings: for inhibition of growth at 0.016 ppm / inhibition of growth at 0.063 ppm / inhibition of growth at 0.004 ppm / inhibition of growth at 0.25 ppm: Alternaria solani, 168 h, read-out: Observed efficacy
[9] = tested on: Blumeria graminis f. sp. tritici; settings: in vivo
[10] = tested on: Sclerotinia sclerotiorum (SCLESC); assay: microbe, parasite or virus in culture; format: cell-based; settings: for inhibition of growth at 0.063 ppm / inhibition of growth at 1 ppm / inhibition of growth at 0.016 ppm / inhibition of growth at 0.25 ppm: Sclerotinia sclerotiorum, 168 h, read-out: Observed efficacy
[11] = tested on: Phakopsora pachyrhizi; assay: Green house use example 13: curative control of soybean rust on soybeans (PHAKPA F129L K4); format: in vivo
[12] = tested on: Monilinia sp. (MONISP); assay: microbe, parasite or virus in culture; format: cell-based; settings: Monilinia, 168 h, read-out: Observed efficacy
[13] = tested on: Cercospora sojina (CERCSO); format: cell-based
[14] = tested on: Corynespora cassiicola (CORYCA), Qol resistant (G143A); SDHI resistant (N75S in SdHC); format: cell-based
[15] = tested on: Blumeria graminis f. sp. tritici; assay: Green house use example 11: control of powdery mildew on wheat, sprayed 2 days after inoculation (ERYSGT K2); format: in vivo; settings: G143A strain, single active
[16] = Zymoseptoria tritici, 168 h, read-out: Observed efficacy
[17] = Trial 1, single compound, 1 ppm
[18] = Trial 1, single compound, 4 ppm
[19] = Trial 2, single compound, 1 ppm
[20] = Pyricularia oryzae, 168 h, read-out: Observed efficacy
[21] = Trial 3, single compound, 4 ppm
[22] = Trial 2, single compound, 2 ppm
[23] = Trial 1, single compound, 2 ppm
[24] = Trial 2, single compound, 4 ppm

Structure (SMILES) | inhibition of growth at 0.063 ppm [4, 16] | inhibition of growth at 0.25 ppm [4, 16] | inhibition of growth at 0.016 ppm [6] | inhibition of growth at 0.063 ppm [6] | inhibition of growth at 0.25 ppm [6] | Observed efficacy ([7]; 0.5 ppm) | Observed efficacy [1, 17] | Observed efficacy [1, 18] | Observed efficacy [1, 19] | inhibition of growth at 0.016 ppm [8] | inhibition of growth at 0.063 ppm [8] | inhibition of growth at 0.063 ppm [10] | inhibition of growth at 0.016 ppm [2, 20] | inhibition of growth at 0.063 ppm [2, 20] | Observed efficacy [11, 18] | Observed efficacy [11, 21] | inhibition of growth at 1 ppm [4, 16] | inhibition of growth at 0.016 ppm [10] | also measured
Cn1cc(C(=O)Nc2ccccc2-c2cc(F)c(F)c(F)c2)c(C(F)F)n1 [fluxapyroxad, reference compound] |  |  |  |  |  |  |  |  |  |  |  |  |  |  |  |  |  |  | Observed efficacy ([1]; 1 ppm): 20; Observed efficacy ([1]; 2 ppm): 67; Observed efficacy ([2]; 1 ppm): 19%; Observed efficacy ([3]; 1 ppm): 42
CO/C=C(/C(=O)OC)c1cccc(Cl)c1CO/N=C(\COC)c1ccccc1 [I.1, Methyl-(E)-2-[3-chloro-2-[[(Z)-(2-methoxy-1-phenyl-ethylidene)amino]oxymethyl]-phenyl]-3-methoxy-prop-2-enoate] | 0% | 45% | 14% | 48% | 72% | 80 | 3 | 58 | 0 | 12% | 29% | 2% | 25% | 64% | 37 | 71 |  |  | Observed efficacy [5]: 61; Observed efficacy [9]: 0
CO/C=C(/C(=O)OC)c1cccc(Cl)c1CO/N=C(\COC)c1c(F)cc(F)cc1F [I.9, Methyl-(E)-2-[3-chloro-2-[[(Z)-[2-methoxy-1-(2,4,6-trifluorophenyl)ethylidene]-amino]oxymethyl]phenyl]-3-methoxy-prop-2-enoate] | 0% | 6% | 7% | 44% | 74% | 59 |  |  | 0 |  | 3% | 11% |  | 32% | 12 | 3 | 60% |  | Observed efficacy [5]: 60; Observed efficacy [1, 22]: 0; inhibition of growth at 0.004 ppm [8]: 1%; inhibition of growth at 1 ppm [10]: 50%; inhibition of growth at 0.001 ppm [12]: 17%; inhibition of growth at 0.063 ppm [12]: 42%; inhibition of growth at 0.25 ppm [12]: 76%
COc1ccnc(C(=O)N[C@@H](C)C(=O)O[C@@H](C)C(c2ccc(F)cc2)c2ccc(F)cc2)c1OC(C)=O [florylpicoxamid, reference compound] |  |  |  |  |  |  |  |  |  |  |  |  |  |  |  |  |  |  | Observed efficacy [6]: 39 and 21; Observed efficacy [13]: 16%; Observed efficacy [14]: 13%; Observed efficacy ([2]; 0.016 ppm): 66%
CO/C=C(/C(=O)OC)c1cccc(C)c1CO/N=C(\COC)c1ccc(F)cc1F [I.7, Methyl (E)-2-[2-[[(Z)-[1-(2,4-difluorophenyl)-2-methoxy-ethylidene]amino]oxymethyl]-3-methyl-phenyl]-3-methoxy-prop-2-enoate] | 0% | 55% | 19% | 46% | 76% | 85 | 9 | 67 |  | 2% | 32% | 2% | 27% | 66% | 41 | 74 |  | 3% | Observed efficacy [13]: 2% and 0%; inhibition of growth at 0.004 ppm [8]: 8%; inhibition of growth at 0.25 ppm [10]: 20%; Observed efficacy ([3]; wheat, sprayed 10 days before inoculation, single active, 1 ppm): 19; inhibition of growth at 0.063 ppm [12]: 45%
CO/C=C(/C(=O)OC)c1cccc(C)c1CO/N=C(\COC)c1ccc(F)cc1 [I.4, Methyl (E)-2-[2-[[(Z)-[1-(4-fluorophenyl)-2-methoxy-ethylidene]amino]oxymethyl]-3-methyl-phenyl]-3-methoxy-prop-2-enoate] | 16% | 43% |  | 39% |  |  |  |  | 49 |  | 50% | 0% | 28% |  |  |  |  | 0% | inhibition of growth at 1 ppm [6]: 64%; inhibition of growth at 1 ppm [10]: 41%; Observed efficacy ([3]; wheat, sprayed 10 days before inoculation, single active, 2 ppm): 12; Observed efficacy [11, 23]: 36
CO/C=C(/C(=O)OC)c1cccc(Br)c1CO/N=C(\COC)c1c(F)cc(F)cc1F [I.11, Methyl (E)-2-[3-bromo-2-[[(Z)-[2-methoxy-1-(2,4,6-trifluorophenyl)ethylidene]-amino]oxymethyl]phenyl]-3-methoxy-prop-2-enoate] | 0% | 14% | 6% | 44% | 71% | 59 | 1 | 14 | 0 |  | 0% | 2% |  | 34% | 12 | 12 | 70% |  | Observed efficacy [1, 22]: 0; inhibition of growth at 0.25 ppm [8]: 0%; Observed efficacy ([15]; 63 ppm): 14; inhibition of growth at 0.001 ppm [12]: 0%; inhibition of growth at 0.004 ppm [12]: 17%
N#Cc1c[nH]cc1-c1cccc2c1OC(F)(F)O2 [fludioxonil, reference compound] | 5% | 5% |  | 51% |  |  |  |  |  | 5% | 29% | 67% | 35% | 59% |  |  | 0% |  | inhibition of growth at 0.004 ppm [2, 20]: 8%; inhibition of growth at 0.25 ppm [2, 20]: 59%; inhibition of growth at 0.004 ppm [12]: 8%
CO/C=C(/C(=O)OC)c1cccc(C)c1CO/N=C(\COC)c1ccccc1 [I.3, Methyl (E)-3-methoxy-2-[2-[[(Z)-(2-methoxy-1-phenyl-ethylidene)amino]oxymethyl]-3-methyl-phenyl]prop-2-enoate] | 21% | 49% | 26% | 43% | 51% |  |  |  |  | 32% | 59% | 3% | 33% |  |  |  |  | 0% | inhibition of growth at 0.016 ppm [4, 16]: 0%; inhibition of growth at 1 ppm [6]: 62%; inhibition of growth at 0.004 ppm [8]: 11%; inhibition of growth at 0.25 ppm [10]: 2%; inhibition of growth at 0.063 ppm [12]: 51%
O=C(Nc1ccccc1F)c1ccc(-c2noc(C(F)(F)F)n2)cc1 [flufenoxadiazam, reference compound] |  |  |  |  |  | 0 |  |  |  |  |  |  |  |  | 31 |  |  |  | Observed efficacy [4]: 2 and 3; Observed efficacy [6]: 5; Observed efficacy ([7]; 2 ppm): 63; Observed efficacy ([2]; 0.004 ppm): 2%; Observed efficacy [11, 23]: 15; Observed efficacy [11, 22]: 17; Observed efficacy [11, 24]: 34
CC(O)(Cn1cncn1)c1ccc(Oc2ccc(Cl)cc2)cc1C(F)(F)F (racemic) [mefentrifluconazole, reference compound] |  |  |  |  |  |  |  |  |  |  |  |  |  |  |  |  |  |  | Observed efficacy [6]: 40 and 22; Observed efficacy ([1]; 1 ppm): 39; Observed efficacy ([1]; 4 ppm): 54; Observed efficacy [8]: 27; Observed efficacy ([2]; 0.063 ppm): 0%; Observed efficacy ([2]; 1 ppm): 53%
CO/C=C(/C(=O)OC)c1cccc(C)c1CO/N=C(\COC)c1c(F)cc(F)cc1F [I.10, Methyl (E)-3-methoxy-2-[2-[[(Z)-[2-methoxy-1-(2,4,6-trifluorophenyl)ethylidene]-amino]oxymethyl]-3-methyl-phenyl]prop-2-enoate] | 0% | 26% | 15% | 40% |  |  | 3 | 14 |  | 0% | 0% | 3% |  | 43% |  | 32 | 55% | 0% | inhibition of growth at 1 ppm [6]: 65%; inhibition of growth at 0.25 ppm [8]: 0%; Observed efficacy ([15]; 16 ppm): 7; inhibition of growth at 0.25 ppm [10]: 13%; Observed efficacy [11, 19]: 13; Observed efficacy [11, 24]: 22
Cc1nc2c(F)c(F)ccc2cc1Oc1cccc(F)c1C(C)(C)O [ipflufenoquin, reference compound] |  |  |  |  |  |  |  |  |  |  |  |  |  |  |  |  |  |  | Observed efficacy [4]: 48 and 41 and 26; Observed efficacy [10]: 4 and 3; Observed efficacy [14]: 11%; Observed efficacy ([2]; 0.004 ppm): 12%; Observed efficacy ([2]; 0.016 ppm): 15%; Observed efficacy ([2]; 0.063 ppm): 12%

Source: patent EP4640052A1 (BASF SE, priority 2024, dated 2025)
